Patent US10668018B2, “Pharmaceutical compositions” (MEXICHEM AMANCO HOLDINGS S.A. DE C.V., priority 2011, dated 2020)

Experiments:
[1] = Amount of ethanol required to dissolve the drug in propellant/ethanol mixture (visual, first clear solution); assay type: physicochemical; conditions: for ethanol required to dissolve the drug: 20° C., drug amount equivalent to MDI dose of 50 μg (FP) or 250 μg (BDP); for Ethanol Content in R-134a / Ethanol Content in R-152a: amount required to dissolve the drug completely, BDP 250 μg, FP 50 μg dose
Protocol: A series of glass vials were charged with 0.00869 g (8.69 mg) of fluticasone propionate. R-152a propellant was then added to each vial, the amount being decreased from one vial to the next to compensate for increasing amounts of ethanol. An amount of ethanol was then added to each vial, with the amount being increased in increments from one vial to the next, in order to determine the minimum amount of ethanol required to dissolve the fluticasone propionate in the R-152a/ethanol mixture. […] The amount of ethanol in the R-152a/ethanol mixture was increased from 1% by weight on the total weight of the R-152a/ethanol mixture in 1% w/w increments. After adding the ethanol, each vial was sonicated in an effort to dissolve the drug, stored at 20° C. and then examined visually to determine whether the drug had in fact dissolved. […] It was determined that 5.0% w/w of ethanol was required to dissolve the fluticasone propionate. […] R-152a propellant was then added to each vial, the amount being decreased from one vial to the next to compensate for increasing amounts of ethanol. […] The amount of ethanol in the R-152a/ethanol mixture was increased from 1% by weight on the total weight of the R-152a/ethanol mixture in 1% w/w increments. After adding the ethanol, each vial was sonicated in an effort to dissolve the drug, stored at 20° C. and then examined visually to determine whether the drug had in fact dissolved. […] Exactly the same procedure as described in Example 3 above was used except that R-134a was used as the propellant. It was determined that 13.0% w/w of ethanol (% by weight on the total weight of the R-134a/ethanol mixture) was required to dissolve the fluticasone propionate. […] Exactly the same procedure as described in Example 4 above was used except that R-134a was used as the propellant. […] The drug was weighed directly into standard aluminium 19 mL cans (C128, Presspart, Blackburn, UK), to which an appropriate amount of ethanol was added to aid solubility of the drug on addition of the propellant. The slurry of the drug in ethanol was then sonicated for 60 minutes in order to disperse the drug in the ethanol. The cans were then crimped with a 50 μL valve (Bespak, Kings Lynn, UK) following which R-152a or R-134a as appropriate was filled into the cans through the valve using a manual Pamasol crimper/filler (Pamasol, Switzerland). […] Finally, all the cans were quarantined for 14 days, valve down, at 22° C./44% RH before commencing testing of the final formulations.

[2] = Solubility of drug in liquefied propellant (pressure solubility apparatus, HPLC); assay type: physicochemical; conditions: stored at 20° C. for 24 hours, n=3
Protocol: An excess of active pharmaceutical ingredient was placed into a pressure cylinder (300 cm^3 stainless steel cylinder from Whitey, Inc.). A vacuum was applied to the cylinder, which was then chilled using liquid nitrogen. Approximately 80 grams of either R-152a or R-134a propellant was charged into the cylinder, which was then stored at 20° C. for 24 hours.
A filtration unit comprising a 15 μm filter in-line with a 5 μm filter was connected to the cylinder containing the excess of drug in propellant. A second receiver pressure cylinder (150 cm^3 stainless steel cylinder from Whitey, Inc.) was exposed to a vacuum and chilled using liquid nitrogen, which was then connected to the filtration unit. Approximately 30 grams of liquid propellant containing drug in excess was passed through the filtration unit and collected in the receiver pressure cylinder.
A modified piece of 3.2 mm (⅛″) tubing was connected to the end of the receiver pressure cylinder, which was then attached to the stem of a continuous valve crimped on to a glass bottle. The 3.2 mm (⅛″) tubing was used to depress the stem of the valve and therefore, enable the contents of the receiver pressure cylinder to be collected in the glass bottle. […] The glass bottle was re-weighed and the mass of drug collected in the DUSA was determined by high performance liquid chromatography (HPLC). […]

CCC(=O)OCC(=O)[C@@]1(OC(=O)CC)[C@@H](C)C[C@H]2[C@@H]3CCC4=CC(=O)C=C[C@]4(C)[C@@]3(Cl)[C@@H](O)C[C@@]21C [beclomethasone dipropionate]
ethanol required to dissolve the drug ([1]; R-134a/ethanol mixture): 4.0 % w/w
ethanol required to dissolve the drug ([1]; R-152a/ethanol mixture): 2.0 % w/w
Ethanol Content in R-134a [1]: 4.0 % w/w
Ethanol Content in R-152a [1]: 2.0 % w/w

CCC(=O)O[C@]1(C(=O)SCF)[C@H](C)C[C@H]2[C@@H]3C[C@H](F)C4=CC(=O)C=C[C@]4(C)[C@@]3(F)[C@@H](O)C[C@@]21C [fluticasone propionate]
mean drug solubility (± S.D.) ([2]; propellant comprising 100% R-134a): 14.27 ± 1.66 µg/g
mean drug solubility (± S.D.) ([2]; propellant comprising 100% R-152a): 73.55 ± 3.98 µg/g
ethanol required to dissolve the drug ([1]; R-134a/ethanol mixture): 13.0 % w/w
ethanol required to dissolve the drug ([1]; R-152a/ethanol mixture): 5.0 % w/w
Ethanol Content in R-134a [1]: 13.0 % w/w
Ethanol Content in R-152a [1]: 5.0 % w/w
